Measurements taken from the supplement of paper PMC10307832.

Experiments:
Test in all cases: relative viability (nuclei count vs DMSO), 5 days (fraction); higher = more cells survive
Bortezomib + Pictilisib = compound: CC(C)C[C@H](NC(=O)[C@H](Cc1ccccc1)NC(=O)c1cnccn1)B(O)O [Bortezomib] + CS(=O)(=O)N1CCN(Cc2cc3nc(-c4cccc5[nH]ncc45)nc(N4CCOCC4)c3s2)CC1 [Pictilisib] (partner 1 µM)
Method in brief: (§1)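 A single step with final 0.05% Triton X-100, 1% formaldehyde and 1 ug/ml Hoechst fixed the cells and stained nuclei 5 days after treatment. Lung cancer cell lines in 1536-well plates had been treated by pin tool the day after seeding with one drug alone or a fixed anchor-drug dose plus five library-drug doses (not always all listed) in √10 steps, and nuclei were counted on 4× images. Relative viability is the ratio of nuclei in treated wells to nuclei in vehicle wells, taken as the median of duplicate plates.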

Obatoclax + Phenformin = compound: COC1=CC(c2cc3ccccc3[nH]2)=N/C1=C\c1[nH]c(C)cc1C [Obatoclax] + N=C(N)NC(=N)NCCc1ccccc1 [Phenformin] (partner 250 µM)
Method in brief: as §1

[1] = compound: CC1=CC(=NN1)NC2=CC(=NC(=N2)/C=C/C3=CC=CC=C3)N4CCN(CC4)C + CC(=O)Nc1cccc(-n2c(=O)n(C3CC3)c(=O)c3c(Nc4ccc(I)cc4F)n(C)c(=O)c(C)c32)c1 [Trametinib] (partner 0.02 µM)
Method in brief: as §1

[2] = compound: CC1=CC(=NN1)NC2=CC(=NC(=N2)/C=C/C3=CC=CC=C3)N4CCN(CC4)C + CS(=O)(=O)N1CCN(Cc2cc3nc(-c4cccc5[nH]ncc45)nc(N4CCOCC4)c3s2)CC1 [Pictilisib] (partner 1 µM)
Method in brief: as §1

Cell Line	relative viability (Bortezomib + Pictilisib; first compound 0.0002 µM)	relative viability (Bortezomib + Pictilisib; first compound 0.000632 µM)	relative viability (Bortezomib + Pictilisib; first compound 0.002 µM)	relative viability (Bortezomib + Pictilisib; first compound 0.006325 µM)	relative viability (Bortezomib + Pictilisib; first compound 0.02 µM)	relative viability (Obatoclax + Phenformin; first compound 0.01 µM)	relative viability (Obatoclax + Phenformin; first compound 0.03162 µM)	relative viability (Obatoclax + Phenformin; first compound 0.1 µM)	relative viability (Obatoclax + Phenformin; first compound 0.3162 µM)	relative viability (Obatoclax + Phenformin; first compound 1 µM)	relative viability ([1]; first compound 0.08 µM)	relative viability ([1]; first compound 0.253 µM)	relative viability ([1]; first compound 0.8 µM)	relative viability ([1]; first compound 2.53 µM)	relative viability ([1]; first compound 8 µM)	relative viability ([2]; first compound 0.08 µM)	relative viability ([2]; first compound 0.253 µM)	relative viability ([2]; first compound 0.8 µM)	relative viability ([2]; first compound 2.53 µM)	relative viability ([2]; first compound 8 µM)
NCI-H727	0.34	0.345	0.329	0.192	0.106	0.692	0.499	0.552	0.529	0.517	0.355	0.347	0.429	0.347	0.285	0.357	0.298	0.34	0.199	0.153
NCI-H838	0.425	0.499	0.556	0.158	0.128	0.567	0.622	0.362	0.46	0.322	0.526	0.541	0.44	0.119	0.12	0.463	0.488	0.471	0.193	0.105
NCI-H1792	0.29	0.21	0.192	0.306	0.175	0.371	–	–	0.176	0.0627	0.427	0.402	0.396	0.195	0.0298	0.268	0.259	0.293	0.205	0.0778
H3255	0.58	0.482	0.406	0.192	0.142	0.306	0.377	0.372	0.335	0.42	0.636	0.45	0.665	0.608	0.271	0.507	0.534	0.497	0.396	0.205
EPLC-272H	–	–	0.3	0.242	0.15	0.255	0.277	0.351	0.225	0.158	0.251	0.261	0.292	0.213	0.126	0.286	0.286	0.31	0.0769	0.152
NCI-H647	0.331	0.287	0.364	0.0521	0.0347	0.566	0.576	0.518	0.252	0.146	0.504	0.282	0.377	0.109	0.0926	0.438	0.48	0.377	0.0644	0.051
LXF-289	0.829	0.81	0.717	0.07	0.0457	0.484	0.53	0.496	0.505	0.458	0.637	0.623	0.637	0.592	0.442	0.802	0.783	0.74	0.442	0.277
NCI-H1650	0.24	0.488	0.17	0.153	0.15	0.429	0.427	0.494	0.449	0.295	0.547	0.566	0.651	0.197	0.0762	0.519	0.526	0.549	0.113	0.0653
